The source made the active and inactive calls. The calls are words filed in the database; no cut-off is given here.
Tests used:
[1] = target: T1, Sodium channel protein type 2 subunit alpha (Homo sapiens, UniProt Q99250); assay: Antagonist activity at human Nav1.2 expressed in HEK293T cells assessed as inhibition of VTD-induced tail current by whole cell patch clamp method relative to control; type: cell-based, HEK-293T; conditions: for inhibition: HEK-293T
[2] = target: T1, Sodium channel protein type 2 subunit alpha; assay: Antagonist activity at human Nav1.2 expressed in HEK293T cells assessed as inhibition of VTD-induced sustained current by whole cell patch clamp method relative to control; type: cell-based, HEK-293T; conditions: for inhibition: HEK-293T
[3] = target: T1, Sodium channel protein type 2 subunit alpha; assay: Inhibition of Nav1.2 (unknown origin) by cell based assay
Target sequence in this assay (Q99250 whole entry): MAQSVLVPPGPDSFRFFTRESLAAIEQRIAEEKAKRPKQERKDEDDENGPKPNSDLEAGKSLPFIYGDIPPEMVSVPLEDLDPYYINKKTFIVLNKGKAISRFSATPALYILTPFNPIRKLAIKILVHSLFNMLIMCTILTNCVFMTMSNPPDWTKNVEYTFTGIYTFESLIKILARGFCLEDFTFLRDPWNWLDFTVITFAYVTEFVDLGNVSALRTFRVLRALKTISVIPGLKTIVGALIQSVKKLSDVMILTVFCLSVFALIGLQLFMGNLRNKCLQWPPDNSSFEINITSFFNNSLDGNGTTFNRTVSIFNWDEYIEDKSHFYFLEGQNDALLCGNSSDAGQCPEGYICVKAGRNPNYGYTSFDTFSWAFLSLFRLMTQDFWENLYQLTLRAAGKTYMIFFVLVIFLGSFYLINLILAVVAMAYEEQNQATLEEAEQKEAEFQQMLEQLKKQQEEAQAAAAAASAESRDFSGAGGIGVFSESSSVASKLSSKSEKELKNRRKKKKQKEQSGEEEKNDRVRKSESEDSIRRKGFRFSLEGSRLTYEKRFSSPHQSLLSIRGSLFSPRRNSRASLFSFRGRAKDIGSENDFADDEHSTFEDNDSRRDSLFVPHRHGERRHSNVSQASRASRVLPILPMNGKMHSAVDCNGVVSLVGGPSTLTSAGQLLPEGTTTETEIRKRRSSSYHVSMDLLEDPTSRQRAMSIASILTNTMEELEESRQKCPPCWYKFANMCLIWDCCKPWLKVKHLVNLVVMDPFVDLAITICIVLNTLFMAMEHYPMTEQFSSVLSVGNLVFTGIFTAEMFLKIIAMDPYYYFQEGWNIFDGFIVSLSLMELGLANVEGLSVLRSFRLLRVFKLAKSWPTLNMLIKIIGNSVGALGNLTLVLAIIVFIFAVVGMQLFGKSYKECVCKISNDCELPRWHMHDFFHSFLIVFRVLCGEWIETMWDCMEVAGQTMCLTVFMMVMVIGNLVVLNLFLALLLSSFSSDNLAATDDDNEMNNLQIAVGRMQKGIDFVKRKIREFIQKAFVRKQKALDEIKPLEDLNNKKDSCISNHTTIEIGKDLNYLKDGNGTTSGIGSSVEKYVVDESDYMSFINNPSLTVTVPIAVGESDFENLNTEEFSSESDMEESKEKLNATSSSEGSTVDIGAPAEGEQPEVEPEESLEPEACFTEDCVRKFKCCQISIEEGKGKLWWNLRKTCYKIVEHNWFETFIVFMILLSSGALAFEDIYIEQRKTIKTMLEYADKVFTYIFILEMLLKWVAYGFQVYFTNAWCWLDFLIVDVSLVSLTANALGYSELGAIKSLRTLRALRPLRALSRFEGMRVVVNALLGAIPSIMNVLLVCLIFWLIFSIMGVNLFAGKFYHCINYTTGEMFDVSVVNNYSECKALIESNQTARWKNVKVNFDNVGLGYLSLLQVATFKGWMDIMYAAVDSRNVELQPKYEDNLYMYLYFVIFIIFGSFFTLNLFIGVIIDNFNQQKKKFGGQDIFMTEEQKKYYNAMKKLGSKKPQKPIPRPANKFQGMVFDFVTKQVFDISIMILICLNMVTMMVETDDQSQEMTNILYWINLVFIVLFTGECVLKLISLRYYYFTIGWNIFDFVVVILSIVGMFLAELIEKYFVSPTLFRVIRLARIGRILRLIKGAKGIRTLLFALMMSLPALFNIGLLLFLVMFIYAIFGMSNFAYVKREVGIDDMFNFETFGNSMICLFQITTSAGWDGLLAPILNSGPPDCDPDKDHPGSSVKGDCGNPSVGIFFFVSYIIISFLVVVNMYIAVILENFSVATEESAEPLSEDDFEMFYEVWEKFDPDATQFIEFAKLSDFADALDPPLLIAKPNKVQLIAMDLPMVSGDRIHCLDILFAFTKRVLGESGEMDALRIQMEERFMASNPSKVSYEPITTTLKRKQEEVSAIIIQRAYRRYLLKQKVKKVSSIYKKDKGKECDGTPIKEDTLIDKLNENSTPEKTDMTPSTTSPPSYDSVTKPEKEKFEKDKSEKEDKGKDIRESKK

[4] = target: T1, Sodium channel protein type 2 subunit alpha; assay: Antagonist activity at human Nav1.2 expressed in HEK293T cells assessed as inhibition of VTD-induced peak current up to 10 nM by whole cell patch clamp method relative to control; type: cell-based; conditions: HEK-293T
Target sequence in this assay (Q99250 whole entry, looked up): as the sequence (Q99250 whole entry) above

[5] = target: T1, Sodium channel protein type 2 subunit alpha; assay: Ratio of IC50 for Nav1.2 (unknown origin) by cell based assay to IC50 for human Nav1.2 expressed in HEK293T cells assessed as inhibition of VTD-induced tail current
Target sequence in this assay (Q99250 whole entry, looked up): as the sequence (Q99250 whole entry) above

[6] = species on record: Mus musculus; assay: Antagonist activity at VSSC in mouse Neuro2a cells assessed as inhibition of peak current at holding potential of -100mV at 100 nM by patch-clamp method; type: cell-based
[7] = target: Sodium channel protein type 8 subunit alpha (Homo sapiens) (UniProt Q9UQD0); conditions: HEK-293T, 30 nM
Description: Antagonist activity at human Nav1.6 expressed in HEK293T cells assessed as inhibition of VTD-induced tail current at 30 nM at holding potential of -100mV by whole cell patch clamp method relative to control

[8] = target: Sodium channel protein type 8 subunit alpha (Homo sapiens) (UniProt Q9UQD0); conditions: HEK-293T, 30 nM; remark: listed apart in the source
Description: Antagonist activity at human Nav1.6 expressed in HEK293T cells assessed as inhibition of VTD-induced sustained current at 30 nM by whole cell patch clamp method relative to control

[9] = target: Sodium channel protein type 8 subunit alpha (Homo sapiens) (UniProt Q9UQD0); conditions: HEK-293T, 30 nM; remark: listed apart in the source
Description: Antagonist activity at human Nav1.6 expressed in HEK293T cells assessed as inhibition of VTD-induced peak current at 30 nM by whole cell patch clamp method relative to control

[10] = target: Sodium channel protein type 9 subunit alpha (Homo sapiens) (UniProt Q15858); conditions: HEK-293T, 30 nM
Description: Antagonist activity at human Nav1.7 expressed in HEK293T cells assessed as inhibition of VTD-induced tail current at 30 nM at holding potential of -100mV by whole cell patch clamp method relative to control

[11] = target: Sodium channel protein type 9 subunit alpha (Homo sapiens) (UniProt Q15858); conditions: HEK-293T, 30 nM; remark: listed apart in the source
Description: Antagonist activity at human Nav1.7 expressed in HEK293T cells assessed as inhibition of VTD-induced peak current at 30 nM by whole cell patch clamp method relative to control

[12] = target: Sodium channel protein type 9 subunit alpha (Homo sapiens) (UniProt Q15858); conditions: HEK-293T, 30 nM; remark: listed apart in the source
Description: Antagonist activity at human Nav1.7 expressed in HEK293T cells assessed as inhibition of VTD-induced sustained current at 30 nM by whole cell patch clamp method relative to control

[13] = target: Sodium channel protein type 9 subunit alpha (Homo sapiens) (UniProt Q15858); assay: Antagonist activity at human Nav1.7 expressed in HEK293T cells assessed as inhibition of VTD-induced tail current at 1 uM at holding potential of -100mV by whole cell patch clamp method relative to control; type: cell-based; conditions: HEK-293T
[14] = target: Sodium channel protein type 9 subunit alpha (Homo sapiens) (UniProt Q15858); assay: Antagonist activity at human Nav1.7 expressed in HEK293T cells assessed as inhibition of VTD-induced peak current at 1 uM by whole cell patch clamp method relative to control; type: cell-based; conditions: HEK-293T
[15] = target: Sodium channel protein type 8 subunit alpha (Homo sapiens) (UniProt Q9UQD0); assay: Antagonist activity at human Nav1.6 expressed in HEK293T cells assessed as inhibition of VTD-induced tail current at 1 uM at holding potential of -100mV by whole cell patch clamp method relative to control; type: cell-based; conditions: HEK-293T
[16] = target: Sodium channel protein type 8 subunit alpha (Homo sapiens) (UniProt Q9UQD0); assay: Antagonist activity at human Nav1.6 expressed in HEK293T cells assessed as inhibition of VTD-induced peak current at 1 uM by whole cell patch clamp method relative to control; type: cell-based; conditions: HEK-293T
[17] = target: Sodium channel protein type 9 subunit alpha (Homo sapiens) (UniProt Q15858); assay: Antagonist activity at human Nav1.7 expressed in HEK293T cells assessed as inhibition of VTD-induced sustained current at 1 uM by whole cell patch clamp method relative to control; type: cell-based; conditions: HEK-293T
[18] = target: Sodium channel protein type 8 subunit alpha (Homo sapiens) (UniProt Q9UQD0); assay: Antagonist activity at human Nav1.6 expressed in HEK293T cells assessed as inhibition of VTD-induced sustained current at 1 uM by whole cell patch clamp method relative to control; type: cell-based; conditions: HEK-293T
[19] = target: T1, Sodium channel protein type 2 subunit alpha; assay: Ratio of IC50 for Nav1.2 (unknown origin) by cell based assay to IC50 for human Nav1.2 expressed in HEK293T cells assessed as inhibition of VTD-induced sustained current
Target sequence in this assay (Q99250 whole entry, looked up): as the sequence (Q99250 whole entry) above

Chain of Sodium channel protein type 9 subunit alpha (Homo sapiens) (Q15858 whole entry, looked up): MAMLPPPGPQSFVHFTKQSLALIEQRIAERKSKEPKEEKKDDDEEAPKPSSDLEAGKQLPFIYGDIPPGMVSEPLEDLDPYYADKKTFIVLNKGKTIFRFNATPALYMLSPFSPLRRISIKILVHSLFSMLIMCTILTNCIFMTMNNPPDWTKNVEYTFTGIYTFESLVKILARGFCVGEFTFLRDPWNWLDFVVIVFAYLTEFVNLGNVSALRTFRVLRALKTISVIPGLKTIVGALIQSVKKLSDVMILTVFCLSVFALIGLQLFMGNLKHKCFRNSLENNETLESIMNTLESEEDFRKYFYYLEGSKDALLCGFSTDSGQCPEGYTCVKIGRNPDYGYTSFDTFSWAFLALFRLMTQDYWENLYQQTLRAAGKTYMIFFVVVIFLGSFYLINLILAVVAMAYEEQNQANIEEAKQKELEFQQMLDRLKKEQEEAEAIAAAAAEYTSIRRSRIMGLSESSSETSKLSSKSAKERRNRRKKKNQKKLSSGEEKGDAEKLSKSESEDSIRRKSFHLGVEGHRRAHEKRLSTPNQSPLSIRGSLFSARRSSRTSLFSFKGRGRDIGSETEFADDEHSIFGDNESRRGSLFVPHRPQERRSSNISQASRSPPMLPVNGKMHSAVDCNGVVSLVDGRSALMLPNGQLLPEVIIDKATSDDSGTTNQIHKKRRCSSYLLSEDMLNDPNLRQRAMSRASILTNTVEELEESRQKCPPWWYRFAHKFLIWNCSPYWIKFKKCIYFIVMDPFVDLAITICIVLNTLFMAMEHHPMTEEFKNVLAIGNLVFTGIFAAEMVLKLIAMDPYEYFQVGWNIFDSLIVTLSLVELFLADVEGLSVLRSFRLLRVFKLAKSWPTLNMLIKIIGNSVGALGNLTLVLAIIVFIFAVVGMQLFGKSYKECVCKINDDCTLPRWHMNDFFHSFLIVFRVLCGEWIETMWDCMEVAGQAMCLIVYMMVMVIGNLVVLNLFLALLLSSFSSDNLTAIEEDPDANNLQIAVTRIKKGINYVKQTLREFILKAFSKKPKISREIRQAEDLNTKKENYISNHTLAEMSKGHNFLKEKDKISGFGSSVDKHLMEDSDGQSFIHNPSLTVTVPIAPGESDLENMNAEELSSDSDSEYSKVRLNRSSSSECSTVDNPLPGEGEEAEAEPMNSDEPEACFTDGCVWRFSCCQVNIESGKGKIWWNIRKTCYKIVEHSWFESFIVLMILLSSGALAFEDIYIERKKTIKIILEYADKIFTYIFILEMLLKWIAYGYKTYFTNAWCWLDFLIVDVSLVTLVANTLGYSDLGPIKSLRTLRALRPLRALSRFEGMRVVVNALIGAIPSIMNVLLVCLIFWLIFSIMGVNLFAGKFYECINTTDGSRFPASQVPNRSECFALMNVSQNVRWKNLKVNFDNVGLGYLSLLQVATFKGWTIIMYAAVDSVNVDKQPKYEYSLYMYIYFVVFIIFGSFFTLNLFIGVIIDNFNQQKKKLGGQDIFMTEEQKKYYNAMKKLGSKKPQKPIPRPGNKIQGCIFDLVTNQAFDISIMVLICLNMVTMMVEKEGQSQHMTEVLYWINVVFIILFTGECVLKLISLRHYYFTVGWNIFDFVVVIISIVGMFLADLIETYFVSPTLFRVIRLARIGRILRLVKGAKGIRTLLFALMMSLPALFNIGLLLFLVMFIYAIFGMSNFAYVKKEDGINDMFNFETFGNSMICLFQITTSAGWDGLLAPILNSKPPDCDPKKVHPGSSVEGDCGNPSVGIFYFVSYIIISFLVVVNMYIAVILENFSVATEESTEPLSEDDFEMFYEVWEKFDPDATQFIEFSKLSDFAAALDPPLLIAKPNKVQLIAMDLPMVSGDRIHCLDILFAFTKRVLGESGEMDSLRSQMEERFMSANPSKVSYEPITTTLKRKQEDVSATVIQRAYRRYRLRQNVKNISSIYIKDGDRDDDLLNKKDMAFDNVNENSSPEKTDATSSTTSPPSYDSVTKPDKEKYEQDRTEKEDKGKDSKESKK

| SMILES | IC50 [1] | inhibition [1] | IC50 [2] | inhibition [2] | EC50 [3] | inhibition [4] | inhibition [6] | also measured |
| --- | --- | --- | --- | --- | --- | --- | --- | --- |
| CCCCCCCCCC[C@H]1C[C@@]2(CCCO2)NC(=N)N1 | 2 nM | Dose-dependent effect | 2.1 nM | Dose-dependent effect | 120 nM | Active | – | Ratio IC50 [5]: 60 |
| CCCCCCCCCC[C@@H]1NC(=N)N[C@]2(CCCO2)[C@@H]1C(=O)O | 35 nM | Dose-dependent effect | 7.5 nM | Dose-dependent effect | 79 nM | Active | inactive | – |
| NC1=N[C@H](O)[C@H]2[C@H]3O[C@]4(O)O[C@@H]([C@@H](O)[C@@]2(N1)[C@@H]4O)[C@]3(O)CO | – | – | – | – | – | – | Active | inhibition [7]: Active; inhibition [8]: Active; inhibition [9]: Active; inhibition [10]: Active; inhibition [11]: Active; inhibition [12]: Active |
| CCCCCCCCCC[C@H]1NC(=N)N[C@@]2(CCCO2)[C@H]1C(=O)O | 170 nM | Dose-dependent effect | 26 nM | Dose-dependent effect | 5.3 nM | Active | inactive | – |
| CCCCCCCCCCC1NC(=N)NC2(CCCO2)C1C(=O)O (racemic) | – | – | – | – | – | – | – | inhibition [13]: Active; inhibition [14]: Active; inhibition [15]: Active; inhibition [16]: Active; inhibition [17]: Active; inhibition [18]: Active |
| CCCCCCCCCC[C@@H]1C[C@]2(CCCO2)NC(=N)N1 | 0.28 nM | Dose-dependent effect | 0.45 nM | Dose-dependent effect | 12 nM | – | – | Ratio IC50 [19]: 43 |

— ChEMBL document CHEMBL3997806, “Inhibition of veratridine-induced delayed inactivation of the voltage-sensitive sodium channel by synthetic analogs of crambescin B” (Bioorg Med Chem Lett, 2017)
